According to ChEMBL document CHEMBL1141556, “Structural insights into hydroxycoumarin-induced apoptosis in U-937 cells” (Bioorg Med Chem, 2008):
“And” between values parts separate entries of the source, which are not always exact repeats. Identical values can stand only once. The source made the active and inactive calls. No cut-off for these calls is given here.

Legend:
U-937 [1] = test: Effect on DNA fragmentation in human U937 cells assessed as ladder-like pattern at 2 mM after 24 hrs; assay type: functional, cell-based
U-937 [2] = test: Induction of apoptosis in human U937 cells at 250 uM after 24 hrs; assay type: functional
U-937 [3] = test: Cytotoxicity against human U937 cells by trypan blue assay after 48 hrs; assay type: functional; conditions: U-937, 48 h
U-937 [4] = test: Growth inhibition of human U937 cells by [3H]thymidine incorporation assay; assay type: functional, cell-based
U-937 [5] = test: Reversal of proapoptotic effect in human U937 cells assessed as inhibition of ladder-like pattern at 250 uM in presence of 10 mM NAC added every 8 hrs for 24 hrs; assay type: functional, cell-based
U-937 [6] = test: Reversal of induction of apoptosis in human U937 cells at 250 uM in presence of 10 mM NAC added every 8 hrs for 24 hrs; assay type: functional, cell-based
U-937 [7] = test: Induction of DNA fragmentation in human U937 cells at 2 mM after 24 hrs; assay type: functional, cell-based

| SMILES | IC50 (U-937 [4]; Homo sapiens, U-937) [µM] | IC50 (U-937 [4]; u-937) [µM] | Activity (U-937 [1]) | Activity (U-937 [2]) | CC50 (U-937 [3]) [µM] | Activity (U-937 [5]) | Activity (U-937 [6]) | Activity (U-937 [7]) |
| --- | --- | --- | --- | --- | --- | --- | --- | --- |
| Cc1cc(=O)oc2ccc(O)cc12 | 628 | – | Active | 3% | > 2000 | – | – | – |
| O=c1oc2ccccc2cc1O [3-HYDROXYCOUMARIN] | > 2000 | – | – | 5.3% | > 2000 | – | – | – |
| Cc1cc(=O)oc2c(O)c(O)ccc12 [4-METHYLDAPHNETIN] | 48.6 | – | – | 55% | 165 | Active | Active | – |
| O=c1ccc2cc(O)c(O)cc2o1 [ESCULETIN] | 31.3 | – | – | 54.3% | 194 | – | – | Active |
| Cc1cc(=O)oc2cc(O)ccc12 [HYMECROMONE] | – | > 2000 | Active | 5.2% and 4.7% | > 2000 | – | – | – |
| COc1cc2ccc(=O)oc2cc1O [SCOPOLETIN] | 152 | – | Active | 6.3% | 600 | – | – | – |

Further lines, with some results ahead:

| IC50 (U-937 [4]; Homo sapiens, U-937) [µM] | IC50 (U-937 [4]; u-937) [µM] | SMILES | Activity (U-937 [1]) | Activity (U-937 [2]) | CC50 (U-937 [3]) [µM] | Activity (U-937 [5]) | Activity (U-937 [6]) | Activity (U-937 [7]) |
| --- | --- | --- | --- | --- | --- | --- | --- | --- |
| > 2000 | – | Cc1ccc2c(C)cc(=O)oc2c1 | – | 5.3% | > 2000 | – | – | – |
| > 2000 | – | Cc1cc(=O)oc2c(C)cccc12 | – | 4.6% | > 2000 | – | – | – |
| > 2000 | – | Cc1ccc2oc(=O)cc(C)c2c1 | – | 4.3% | > 2000 | – | – | – |
| > 2000 | – | O=c1ccc2ccccc2o1 [COUMARIN] | – | 2.6% | > 2000 | – | – | – |
| > 2000 | – | COc1ccc2c(C)cc(=O)oc2c1 [HYMECROMONE METHYL ETHER] | – | 4% | > 2000 | – | – | – |
